{"source": "PubChem BioAssay (NCI)", "assay_in_all_cases": "NCI tumour cell line growth inhibition, 384-well format", "key": {"[1]": {"test_system": "ACHN renal"}, "[2]": {"test_system": "MDA-MB-435 melanoma"}, "[3]": {"test_system": "SF-539 CNS"}, "[4]": {"test_system": "U251 glioblastoma"}, "[5]": {"test_system": "UO-31 renal"}, "[6]": {"test_system": "A498 renal"}, "[7]": {"test_system": "EKVX NSCLC"}, "[8]": {"test_system": "SK-MEL-5 melanoma"}, "[9]": {"test_system": "UACC-62 melanoma"}, "[10]": {"test_system": "A549 NSCLC"}, "[11]": {"test_system": "786-0 renal"}, "[12]": {"test_system": "SK-MEL-2 melanoma"}, "[13]": {"test_system": "HT29 colon"}}, "note": "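Abbreviation: GI50, concentration required for 50% inhibition of growth. TGI: concentration producing complete growth inhibition.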"}
{"compound": "CCc1c(C#N)c(SC(C(N)=O)c2ccccc2)nc(N2CCC(N)CC2)c1C#N", "note": "(stereo unspecified)", "values": [{"measurement": "GI50", "setting": "[1]", "value": 14.9, "unit": "µM"}, {"measurement": "TGI", "setting": "[1]", "value": 28.2, "unit": "µM"}, {"measurement": "GI50", "setting": "[2]", "value": 16.8, "unit": "µM"}, {"measurement": "TGI", "setting": "[2]", "value": 30.5, "unit": "µM"}, {"measurement": "GI50", "setting": "[3]", "value": 6.59, "unit": "µM"}, {"measurement": "TGI", "setting": "[3]", "value": 19.3, "unit": "µM"}, {"measurement": "GI50", "setting": "[4]", "value": 12.5, "unit": "µM"}, {"measurement": "TGI", "setting": "[4]", "value": 25.1, "unit": "µM"}, {"measurement": "GI50", "setting": "[5]", "value": 18.1, "unit": "µM"}, {"measurement": "TGI", "setting": "[5]", "value": 33, "unit": "µM"}, {"measurement": "GI50", "setting": "[6]", "value": 12.9, "unit": "µM"}, {"measurement": "TGI", "setting": "[6]", "value": 25.6, "unit": "µM"}, {"measurement": "GI50", "setting": "[7]", "value": 15.4, "unit": "µM"}, {"measurement": "TGI", "setting": "[7]", "value": 28.8, "unit": "µM"}, {"measurement": "GI50", "setting": "[8]", "value": 11, "unit": "µM"}, {"measurement": "TGI", "setting": "[8]", "value": 23, "unit": "µM"}, {"measurement": "GI50", "setting": "[9]", "value": 6.36, "unit": "µM"}, {"measurement": "TGI", "setting": "[9]", "value": 19.7, "unit": "µM"}, {"measurement": "GI50", "setting": "[10]", "value": 14.4, "unit": "µM"}, {"measurement": "TGI", "setting": "[10]", "value": 27.7, "unit": "µM"}, {"measurement": "GI50", "setting": "[11]", "value": 11.7, "unit": "µM"}, {"measurement": "TGI", "setting": "[11]", "value": 24, "unit": "µM"}, {"measurement": "GI50", "setting": "[12]", "value": 12, "unit": "µM"}, {"measurement": "TGI", "setting": "[12]", "value": 24.4, "unit": "µM"}, {"measurement": "GI50", "setting": "[13]", "value": 16.9, "unit": "µM"}, {"measurement": "TGI", "setting": "[13]", "value": 30.7, "unit": "µM"}]}
